Reference: patent EP2803317B1, “MRI METHOD FOR MEASURING DIFFUSION PARAMETERS OF TRACER IN LIVING ORGAN TISSUE SPACE AND EXTRACELLULAR SPACE” (Peking University Third Hospital, priority 2012, dated 2013)

Experiments:
[1] = MRI tracer method: diffusion parameters of Gd-DTPA in brain ECS of SD rats, fitted from time-series MRI images; format: in vivo; conditions: for λ: tortuosity
Method: (§1) A method for computing the physiological parameter in the living organism will be illustrated with the following embodiment. In the embodiment, Gadolinium-diethylenetriaminepentaacetic acid (Gd-DTPA) which is Mag-nevist solution produced by Bayer Schering Pharma AG was used as the tracer. The corresponding MRI signal intensities of the tracer with the actual concentration in agarose gel and rat brain were measured. Male Sprague Dawley rats weighing 250-300g were used in the experiment. The living organism used for measurement is the rat brain. A Siemens Magnetom Trio 3.0 T MRI system was used to obtain the rat brain images.
(§2) In this embodiment, the position of the injection site Q and the depth of Gd-DTPA microinjection of the rat brains were determined by three-dimensional reconstructed image basing on the brain stereotaxic atlas. The specific method was: preparing skin, shaving between the eyes of rats about 4cm skin backwards along the midline of the skull and exposing the skull plate; then fixing the rats in a stereotactic apparatus and administrating the drug at the injection site Q using magnetic drug delivery system; rubbing off the skull plate at the entry point with an electric drill, setting a micro syringe into the brain and manually administrating 2µLGd-DTPA solution with the concentration of 10mM into the target location in three injection with the interval of 5min. The syringe was left for 10 min in the brain when drug injection was finished before the micro syringe was exited and the skin was sutured. Scanned images were taken in 15min, 30min, 1h, 2h, 3h, 4h, 6h, 9h and 12h and imaging parameters were set as the mentioned above.
As shown in the FIG., the bias field is first to be correct to eliminate the signal strength deviation among the sequence of images; the image registration technique is then used to unify the position of the increment images with the referenced images; the diffusion model is finally solved via the distribution of the tracer concentration from different times obtained by the analysis of the signal strength increment.
Although the tortuosity varies in different directions and remains unchanged in the same direction in equation (5), the real tortuosity probably varies in the same direction. The space variability of the tortuosity should be determined to accurately describe the real diffusion process. The tortuosity of a point (x, y, z) in space is: λ = λ(x, y, z) [formula] or written in a polar coordinates: λ = λ(r, θ, φ) [formula] the diffusion model is changed to: (∂C)/(∂t) = (D)/(λ((x, y, z))^2)(∇)^2 C−(Q)/(α)−k′C [formula]
Although equation (10) fully considers the space variability of the tortuosity, the solution of equation (8) is difficult to get. The equation (8) is a partial differential formula with variable coefficients and usually has no analytic solution. The continuous problem can be turned into a discrete problem to solve the equation (10): ΔSI(t+Δt)−ΔSI(t) = (D)/(λ((x, y, z))^2)(∇)^2 (ΔSI) + (Q)/(α)k−k′ΔSI(t) + k′b [formula] wherein, Δt is the sampling time in each unit, [formula] Δi represents the space distance of sampling along the axis i. It depends on the space resolution of the image along the axis i.
For the discrete equation (11), the space tortuosity λ, the loss ratio k' and the part volume ratio α can be fit by the least squares method, i.e. the solution of the below optimization problem is required: [formula]
Write the equation (12) in a matrix form and get: min f(λ,α,k′) = ‖Ax−b‖2^2 [formula] wherein, the nonvanishing element in the line (x, y, z, t,:) of the matrix A is : ((∂)^2 ΔSI)/((∂)^2 r) + k−ΔSI + b [formula] the line (x, y, Z, t,) of the known vector b is: b(x,y,z,t,:) = ΔSI(t+Δt)−ΔSI(t) [formula] the substitution variable x is: x = ([(D)/(λ((x, y, z))^2),(Q)/(α),k′])^T [formula] […]

[2] = MRI tracer method: distribution volume, distribution volume fraction and macro clearance of Gd-DTPA in brain hemisphere ECS after injection in caudate nucleus; format: in vivo, SD rats; conditions: for Macro clearance: injection to the caudate nucleus of eight SD rats; for Distribution Volume Fraction: rat brain hemisphere; for Distribution Volume Fraction / Distribution Volume (Vd): after injection in caudate nucleus; for Distribution Volume (Vd): rat brain
Method: as §1, §2
(§3) Calculation method about distribution volume (Vd), distribution volume fraction and general clearance of the tracer in the living organism is as follows: reconstructing the registered and subtracted images into axial images; quantitative measuring the signal increment region in image of each layer via the Matlab program as shown in figures; and recording the number of pixels in the increment region and the signal intensity value of each pixel. According to the integral principle, we can obtain the distribution volumes (Vd) of the tracer (Gd-DTPA) from different times in the brain hemisphere ECS via adding up the increment region of each layer. The distribution volume fraction of Gd-DTPA in the brain hemisphere ECS can be obtained by dividing the Vd from different times by the volume of the brain hemisphere of the rat. The macro clearance is defined as the total signal intensity at a previous time subtracting the total signal intensity at a later time, then dividing the initial total signal intensity.
The selected region in the FIG. is obtained by subtracting the image before increment from the increment image. The increment region is shown as the "bright region" and the other un-increment region is shown as the "dark region". […] Using the bulleted method above can measure the Vd, the distribution volume fraction and the macro clearance of the caudate nucleus.

[3] = MRI tracer method: diffusion parameters of Gd-DTPA in the skeletal muscle gap; format: in vivo; conditions: rat skeletal muscle gap
Excerpt: (§4) Although the above invention is for the brain ECS of the SD rat, the present invention is applicable to other the living organisms. […] The left high signal region adjacent to the femur is the Gd-DTPA's diffusion region after injection.

[4] = MRI tracer method: distribution volume and macro clearance of Gd-DTPA in the skeletal muscle gap; format: in vivo; conditions: rat skeletal muscle gap
Excerpt: as §3, §4

[5] = MRI tracer method: diffusion parameters of Gd-DTPA in the glioma brain; format: in vivo; conditions: glioma brain of the rat
Excerpt: Table 8: the diffusion parameter of Gd-DTPA in the glioma brain of the rat

[6] = MRI tracer method: distribution volume, distribution volume fraction and macro clearance of Gd-DTPA in the glioma brain; format: in vivo; conditions: glioma brain of the rat
Excerpt: as §3
Using the same method as used in the brain ECS, we can learn the time-varying change rule of distribution volume of the Gd-DTPA in the glioma brain of the rat. Table 9: the time-varying change rule of distribution volume of the Gd-DTPA in the glioma brain of the rat

[7] = SD rat brain, caudate putamen (CPu), Gd-DTPA 2µL, 10mM microinjection
[8] = SD rat brain, medial prefrontal cortex (mPFC), Gd-DTPA 2µL, 10mM microinjection
[9] = SD rat brain, occipital cortex (Oc), Gd-DTPA 2µL, 10mM microinjection
[10] = SD rat brain, substantianigra (SN), Gd-DTPA 2µL, 10mM microinjection
[11] = SD rat brain, thalamus (T), Gd-DTPA 2µL, 10mM microinjection
[12] = rats' caudate nucleus region, anisotropic, direction -X
[13] = rats' caudate nucleus region, anisotropic, direction -Y
[14] = rats' caudate nucleus region, anisotropic, direction -Z
[15] = rats' caudate nucleus region, anisotropic, direction X
[16] = rats' caudate nucleus region, anisotropic, direction Z

Q: Which results are given for `O=C([O-])CN(CCN(CC(=O)[O-])CC(=O)O)CCN(CC(=O)[O-])CC(=O)O.[Gd+3]` [Gd-DTPA, Gadolinium-diethylenetriaminepentaacetic acid]?
A: D^∗ [1, 7]: 3.38 ×10^-4/mm^2·s^-1; k' [1, 7]: 0.76 ×^10-4/mM· L^-1· s^-1; D^∗ [1, 8]: 2.31 ×10^-4/mm^2·s^-1; k' [1, 8]: 2.38 ×^10-4/mM· L^-1· s^-1; D^∗ [1, 9]: 3.25 ×10^-4/mm^2·s^-1; k' [1, 9]: 1.55 ×^10-4/mM· L^-1· s^-1; D^∗ [1, 10]: 2.06 ×10^-4/mm^2·s^-1; k' [1, 10]: 8.28 ×^10-4/mM· L^-1· s^-1; D^∗ [1, 11]: 3.28 ×10^-4/mm^2·s^-1; k' [1, 11]: 1.44 ×^10-4/mM· L^-1· s^-1; D^∗ [1, 12]: 3.57 ± 0.88 ×10^-4/mm^2·s^-1; k' [1, 12]: 7.14 ± 3.06 ×10^-5/mM·L^-1·s^-1; D^∗ [1, 13]: 3.05 ± 0.93 ×10^-4/mm^2·s^-1; k' [1, 13]: 7.59 ± 4.04 ×10^-5/mM·L^-1·s^-1; D^∗ [1, 14]: 4.01 ± 0.60 ×10^-4/mm^2·s^-1; k' [1, 14]: 7.88 ± 6.24 ×10^-5/mM·L^-1·s^-1; D^∗ [1, 15]: 3.73 ± 1.10 ×10^-4/mm^2·s^-1; k' [1, 15]: 7.67 ± 3.96 ×10^-5/mM·L^-1·s^-1; D^∗ [1, 16]: 2.54 ± 1.27 ×10^-4/mm^2·s^-1; k' [1, 16]: 7.74 ± 4.07 ×10^-5/mM·L^-1·s^-1; λ ([1]; SD rat brain, caudate putamen (CPu)): 1.24; λ ([1]; SD rat brain, medial prefrontal cortex (mPFC)): 1.50; λ ([1]; SD rat brain, occipital cortex (Oc)): 1.26; λ ([1]; SD rat brain, substantianigra (SN)): 1.59; λ ([1]; SD rat brain, thalamus (T)): 1.26; Macro clearance ([2]; time 1-2 h): 0.23 h⁻¹; Macro clearance ([2]; time 2-3 h): 0.12 h⁻¹; Macro clearance ([2]; time 3-4 h): 0.19 h⁻¹; Macro clearance ([2]; time 4-6 h): 0.11 h⁻¹; Macro clearance ([2]; time 6-9 h): 0.06 h⁻¹; Macro clearance ([2]; time 9-12 h): 0.08 h⁻¹; Distribution Volume Fraction ([2]; time 1 h): 7.55%; Distribution Volume Fraction ([2]; time 2 h): 9.48%; Distribution Volume Fraction ([2]; time 3 h): 9.45%; Distribution Volume Fraction ([2]; time 4 h): 8.20%; Distribution Volume Fraction ([2]; time 6 h): 6.96%; Distribution Volume Fraction ([2]; time 9 h): 4.29%; Distribution Volume Fraction ([2]; time 12 h): 1.33%; Distribution Volume (Vd) ([2]; time 1 h): 724.75 mm^3; Distribution Volume (Vd) ([2]; time 2 h): 910.50 mm^3; Distribution Volume (Vd) ([2]; time 3 h): 907.25 mm^3; Distribution Volume (Vd) ([2]; time 4 h): 787.57 mm^3; Distribution Volume (Vd) ([2]; time 6 h): 668.50 mm^3; Distribution Volume (Vd) ([2]; time 9 h): 411.57 mm^3; Distribution Volume (Vd) ([2]; time 12 h): 128.13 mm^3; D^∗ ([3]; direction -X): 2.611 ×10^-4/mm^2·s^-1; k' ([3]; direction -X): 2.359 ×10^-4/mM·L^-1·s^-1; D^∗ ([3]; direction -Y): 8.235 ×10^-4/mm^2·s^-1; k' ([3]; direction -Y): 10.940 ×10^-4/mM·L^-1·s^-1; D^∗ ([3]; direction -Z): 7.154 ×10^-4/mm^2·s^-1; k' ([3]; direction -Z): 5.083 ×10^-4/mM·L^-1·s^-1; D^∗ ([3]; direction X): 2.930 ×10^-4/mm^2·s^-1; k' ([3]; direction X): 2.870 ×10^-4/mM·L^-1·s^-1; D^∗ ([3]; direction Z): 9.537 ×10^-4/mm^2·s^-1; k' ([3]; direction Z): 7.817 ×10^-4/mM·L^-1·s^-1; Vd ([4]; time 5 min): 407 mm^3; Vd ([4]; time 10 min): 383 mm^3; Vd ([4]; time 15 min): 234 mm^3; Vd ([4]; time 25 min): 0 mm^3; Macro clearance ([4]; time(h) 5-10): 0.28 h⁻¹; Macro clearance ([4]; time(h) 10-15): 0.36 h⁻¹; Macro clearance ([4]; time(h) 15-25): 0.36 h⁻¹; k' ([5]; direction -X): 3.31 ×10^-4/mM·L^-1·s^-1; k' ([5]; direction -Y): 3.12 ×10^-4/mM·L^-1·s^-1; k' ([5]; direction -Z): 3.05 ×10^-4/mM·L^-1·s^-1; k' ([5]; direction X): 3.13 ×10^-4/mM·L^-1·s^-1; k' ([5]; direction Z): 3.15 ×10^-4/mM·L^-1·s^-1; Macro clearances ([6]; time 0.5-1 h): 0.23 h⁻¹; Macro clearances ([6]; time 1-2 h): 0.36 h⁻¹; Macro clearances ([6]; time 2-3 h): 0.41 h⁻¹; Distribution Volume Fraction ([6]; time 0.25 h): 4.85%; Vd ([6]; time 0.25 h): 466 mm^3; Distribution Volume Fraction ([6]; time 0.5 h): 6.78%; Vd ([6]; time 0.5 h): 651 mm^3; Distribution Volume Fraction ([6]; time 1 h): 7.50%; Vd ([6]; time 1 h): 720 mm^3; Distribution Volume Fraction ([6]; time 2 h): 5.24%; Vd ([6]; time 2 h): 503 mm^3; Distribution Volume Fraction ([6]; time 3 h): 0%; Vd ([6]; time 3 h): 0 mm^3
